Results as given in patent publication US20200163984A1, “USE OF ISOVALERYL SPIRAMYCIN I, II AND/OR III IN MANUFACTURING MEDICAMENT FOR TREATING AND/OR PREVENTING TUMOR, AND MEDICAMENT” (SHENYANG FUYANG PHARMACEUTICAL TECHNOLOGY CO., LTD., priority 2017, published 2020).

What was measured:
[1] = system: transplanted tumor of human renal clear cell adenocarcinoma cell 786-O; experiment: 786-O transplanted tumor in nude mice
Protocol: (§1) 786-O cells in a logarithmic growth phase were taken and subjected to a trypan blue exclusion experiment showing that the cell viability was more than 95%, then the cells were subjected to trypsinization, centrifugation, and supernatant removal. Then cell concentration was adjusted to 1×10^7/ml with matrigel, then each nude mouse was inoculated subcutaneously with 0.2 ml of cells at its right armpit and recorded as the first day of inoculation. When the tumor grows to be greater than or equal to 100 mm^3, the mice were randomly divided into 11 groups with 6 mice in each group: a model group, a cyclophosphamide group, isovaleryl spiramycin I groups with doses of 25, 50 and 100 mg/kg, isovaleryl spiramycin II groups with doses of 25, 50 and 100 mg/kg, and isovaleryl spiramycin III groups with doses of 25, 50 and 100 mg/kg. Each group was continuously administered intragastrically for 30 days with a dose of 20 ml/kg. The mice were sacrificed the next day after drug withdrawal and the indicators were tested. The long diameter and short diameter of the tumor, and the body weight of each mouse were recorded every 3 days from drug administration to nude mouse sacrifice.
(§2) The body weight of the nude mice and the long diameter (a) and short diameter (b) of the transplanted tumor were measured every 3 days, and the tumor volume (v), relative tumor volume (RTV) and relative tumor proliferation rate (T/C) are calculated respectively according to the following formulas, wherein V=a×b^2/2; RTV=V/V0 (V0 is the tumor volume before administration, V is the tumor volume before sacrifice), and T/C (%)=treatment group RTV/model control group RTV×100%.
(§3) Each mouse was weighed and sacrificed. After the tumor was completely stripped off from the body of the mouse, the non-tumor tissues such as blood stains and fat were removed to weigh the tumor and calculate the tumor growth inhibition rate. The average tumor weight of each group of mice is used as an indicator of efficacy. Tumor growth inhibition rate (%)=(1−the average tumor weight of the treatment group/the average tumor weight of the model group)×100%.

[2] = system: transplanted tumor of human cervical cancer cell HeLa; experiment: HeLa transplanted tumor in nude mice
Protocol: as §1, with “HeLa” for “786-O”
as §2, §3

[3] = system: transplanted tumor of human breast cancer cell MCF-7; experiment: MCF-7 transplanted tumor in nude mice
Protocol: as §1, with “Then” for “786-O cells in a logarithmic growth phase were taken and subjected to a trypan blue exclusion experiment showing that the cell viability was more than 95%, then the cells were subjected to trypsinization, centrifugation, and supernatant removal. Then”
as §2, §3

[4] = 786-O, high dose (100 mg/kg in method) i.g. 30 days
[5] = 786-O, low dose (25 mg/kg in method) i.g. 30 days
[6] = 786-O, medium dose (50 mg/kg in method) i.g. 30 days
[7] = HeLa, high dose (100 mg/kg in method) i.g. 30 days
[8] = HeLa, low dose (25 mg/kg in method) i.g. 30 days
[9] = HeLa, medium dose (50 mg/kg in method) i.g. 30 days
[10] = MCF-7, 25 mg/kg (low dose) i.g. 30 days
[11] = MCF-7, 50 mg/kg (medium dose) i.g. 30 days
[12] = MCF-7, 100 mg/kg (high dose) i.g. 30 days

SMILES: O=P1(N(CCCl)CCCl)NCCCO1 (stereo not drawn) [Cyclophosphamide, cyclophosphamide, reference compound]
- Inhibition Rate (%) ([1]; 786-O nude mice, 30 mg/kg): 70.51%
- Relative Tumor Proliferation Rate (T/C) ([1]; 786-O nude mice, 30 mg/kg): 37.41%
- Relative Tumor Volume (RTV) ([1]; 786-O nude mice, 30 mg/kg): 6.76 ± 0.79
- Tumor Weight ([1]; 786-O nude mice, 30 mg/kg): 0.63 ± 0.04 g
- Body Weight (g) (d1) ([1]; 786-O nude mice, 30 mg/kg, d1): 21.58 ± 0.81 g
- Tumor Volume (mm3) (d 1) ([1]; 786-O nude mice, 30 mg/kg, d1): 108.64 ± 14.40 mm3
- Body Weight (g) (d30) ([1]; 786-O nude mice, 30 mg/kg, d30): 19.42 ± 0.67 g
- Tumor Volume (mm3) (d30) ([1]; 786-O nude mice, 30 mg/kg, d30): 734.23 ± 24.66 mm3
- Inhibition Rate (%) ([2]; HeLa nude mice, 30 mg/kg): 65.74%
- Relative Tumor Proliferation Rate (T/C) ([2]; HeLa nude mice, 30 mg/kg): 36.17%
- Relative Tumor Volume (RTV) ([2]; HeLa nude mice, 30 mg/kg): 6.00 ± 1.35
- Tumor Weight ([2]; HeLa nude mice, 30 mg/kg): 0.66 ± 0.13 g
- Body Weight (g) (d1) ([2]; HeLa nude mice, 30 mg/kg, d1): 21.10 ± 0.69 g
- Tumor Volume (mm3) (d 1) ([2]; HeLa nude mice, 30 mg/kg, d1): 127.17 ± 35.82 mm3
- Body Weight (g) (d30) ([2]; HeLa nude mice, 30 mg/kg, d30): 19.73 ± 1.22 g
- Tumor Volume (mm3) (d30) ([2]; HeLa nude mice, 30 mg/kg, d30): 724.89 ± 53.90 mm3
- Body Weight (d 1) ([3]; MCF-7, 30 mg/kg i.g. 30 days): 22.03 ± 0.70 g
- Body Weight (d 30) ([3]; MCF-7, 30 mg/kg i.g. 30 days): 17.77 ± 0.65 g
- Inhibition Rate (tumor growth inhibition rate) ([3]; MCF-7, 30 mg/kg i.g. 30 days): 70.18%
- Relative Tumor Proliferation Rate (T/C) ([3]; MCF-7, 30 mg/kg i.g. 30 days): 29.56%
- Relative Tumor Volume (RTV) ([3]; MCF-7, 30 mg/kg i.g. 30 days): 5.17 ± 0.64
- Tumor Volume (d 1) ([3]; MCF-7, 30 mg/kg i.g. 30 days): 103.78 ± 12.65 mm3
- Tumor Volume (d 30) ([3]; MCF-7, 30 mg/kg i.g. 30 days): 532.62 ± 56.27 mm3
- Tumor Weight ([3]; MCF-7, 30 mg/kg i.g. 30 days): 0.81 ± 0.25*8 g

SMILES: CO[C@@H]1[C@@H](O[C@@H]2O[C@H](C)[C@@H](O[C@H]3C[C@@](C)(O)[C@@H](OC(=O)CC(C)C)[C@H](C)O3)[C@H](N(C)C)[C@H]2O)[C@@H](CC=O)C[C@@H](C)[C@@H](O[C@H]2CC[C@H](N(C)C)[C@@H](C)O2)/C=C/C=C/C[C@@H](C)OC(=O)C[C@H]1O [Isovaleryl spiramycin I, isovaleryl spiramycin I]
- Inhibition Rate (%) ([1]; 786-O nude mice, 25 mg/kg): 34.70%
- Relative Tumor Proliferation Rate (T/C) ([1]; 786-O nude mice, 25 mg/kg): 37.88%
- Relative Tumor Volume (RTV) ([1]; 786-O nude mice, 25 mg/kg): 6.99 ± 0.83
- Tumor Weight ([1]; 786-O nude mice, 25 mg/kg): 1.40 ± 0.40 g
- Tumor Volume (mm3) (d 1) ([1]; 786-O nude mice, 25 mg/kg, d1): 96.85 ± 9.98 mm3
- Tumor Volume (mm3) (d30) ([1]; 786-O nude mice, 25 mg/kg, d30): 677.21 ± 58.76 mm3
- Inhibition Rate (%) ([1]; 786-O nude mice, 50 mg/kg): 39.22%
- Relative Tumor Proliferation Rate (T/C) ([1]; 786-O nude mice, 50 mg/kg): 37.19%
- Relative Tumor Volume (RTV) ([1]; 786-O nude mice, 50 mg/kg): 6.86 ± 1.01
- Tumor Weight ([1]; 786-O nude mice, 50 mg/kg): 1.31 ± 0.35 g
- Tumor Volume (mm3) (d 1) ([1]; 786-O nude mice, 50 mg/kg, d1): 96.82 ± 8.52 mm3
- Tumor Volume (mm3) (d30) ([1]; 786-O nude mice, 50 mg/kg, d30): 664.44 ± 73.49 mm3
- Inhibition Rate (%) ([1]; 786-O nude mice, 100 mg/kg): 64.36%
- Relative Tumor Proliferation Rate (T/C) ([1]; 786-O nude mice, 100 mg/kg): 36.87%
- Relative Tumor Volume (RTV) ([1]; 786-O nude mice, 100 mg/kg): 6.81 ± 0.31
- Tumor Weight ([1]; 786-O nude mice, 100 mg/kg): 0.76 ± 0.13 g
- Tumor Volume (mm3) (d 1) ([1]; 786-O nude mice, 100 mg/kg, d1): 103.25 ± 9.71 mm3
- Tumor Volume (mm3) (d30) ([1]; 786-O nude mice, 100 mg/kg, d30): 702.74 ± 37.66 mm3
- Relative Tumor Proliferation Rate (T/C) [1, 4]: 36.89%
- tumor growth inhibition rate [1, 4]: 64.36%
- Relative Tumor Proliferation Rate (T/C) [1, 5]: 37.88%
- tumor growth inhibition rate [1, 5]: 34.70%
- tumor volume and relative tumor volume compared with the model group ([1]; 786-O, low, medium and high doses, P<0.05): significantly lower
- Relative Tumor Proliferation Rate (T/C) [1, 6]: 37.19%
- tumor growth inhibition rate [1, 6]: 39.22%
- mouse weight compared with the model group ([1]; mouse, in vivo): no significant changes
- Body Weight (g) (d1) ([1]; mouse, in vivo, 25 mg/kg): 21.87 ± 0.89 g
- Body Weight (g) (d30) ([1]; mouse, in vivo, 25 mg/kg): 22.95 ± 0.88 g
- Body Weight (g) (d1) ([1]; mouse, in vivo, 50 mg/kg): 22.00 ± 0.94 g
- Body Weight (g) (d30) ([1]; mouse, in vivo, 50 mg/kg): 22.82 ± 0.64 g
- Body Weight (g) (d1) ([1]; mouse, in vivo, 100 mg/kg): 21.88 ± 0.54 g
- Body Weight (g) (d30) ([1]; mouse, in vivo, 100 mg/kg): 23.00 ± 0.67 g
- Inhibition Rate (%) ([2]; HeLa nude mice, 12.5 mg/kg): 46.69%
- Relative Tumor Proliferation Rate (T/C) ([2]; HeLa nude mice, 12.5 mg/kg): 69.18%
- Relative Tumor Volume (RTV) ([2]; HeLa nude mice, 12.5 mg/kg): 11.47 ± 4.97
- Tumor Weight ([2]; HeLa nude mice, 12.5 mg/kg): 1.03 ± 0.59 g
- Tumor Volume (mm3) (d 1) ([2]; HeLa nude mice, 12.5 mg/kg, d1): 112.43 ± 6.87 mm3
- Tumor Volume (mm3) (d30) ([2]; HeLa nude mice, 12.5 mg/kg, d30): 1287.77 ± 552.57 mm3
- Inhibition Rate (%) ([2]; HeLa nude mice, 25 mg/kg): 51.57%
- Relative Tumor Proliferation Rate (T/C) ([2]; HeLa nude mice, 25 mg/kg): 39.57%
- Relative Tumor Volume (RTV) ([2]; HeLa nude mice, 25 mg/kg): 6.56 ± 0.55
- Tumor Weight ([2]; HeLa nude mice, 25 mg/kg): 0.94 ± 0.48 g
- Tumor Volume (mm3) (d 1) ([2]; HeLa nude mice, 25 mg/kg, d1): 112.78 ± 9.72 mm3
- Tumor Volume (mm3) (d30) ([2]; HeLa nude mice, 25 mg/kg, d30): 738.39 ± 75.32 mm3
- Inhibition Rate (%) ([2]; HeLa nude mice, 50 mg/kg): 65.55%
- Relative Tumor Proliferation Rate (T/C) ([2]; HeLa nude mice, 50 mg/kg): 30.91%
- Relative Tumor Volume (RTV) ([2]; HeLa nude mice, 50 mg/kg): 5.13 ± 0.68
- Tumor Weight ([2]; HeLa nude mice, 50 mg/kg): 0.67 ± 0.09 g
- Tumor Volume (mm3) (d 1) ([2]; HeLa nude mice, 50 mg/kg, d1): 114.15 ± 6.08 mm3
- Tumor Volume (mm3) (d30) ([2]; HeLa nude mice, 50 mg/kg, d30): 588.18 ± 73.34 mm3
- Relative Tumor Proliferation Rate (T/C) [2, 7]: 30.91%
- tumor growth inhibition rate [2, 7]: 65.55%
- Relative Tumor Proliferation Rate (T/C) [2, 8]: 69.18%
- tumor growth inhibition rate [2, 8]: 46.69%
- tumor volume and relative tumor volume compared with the model group ([2]; HeLa, low, medium and high doses, P<0.05): significantly lower
- Relative Tumor Proliferation Rate (T/C) [2, 9]: 39.57%
- tumor growth inhibition rate [2, 9]: 51.57%
- mouse weight compared with the model group ([2]; mouse, in vivo): no significant changes
- Body Weight (g) (d1) ([2]; mouse, in vivo, 12.5 mg/kg): 20.72 ± 0.49 g
- Body Weight (g) (d30) ([2]; mouse, in vivo, 12.5 mg/kg): 21.10 ± 0.68 g
- Body Weight (g) (d1) ([2]; mouse, in vivo, 25 mg/kg): 21.07 ± 0.44 g
- Body Weight (g) (d30) ([2]; mouse, in vivo, 25 mg/kg): 21.23 ± 0.73 g
- Body Weight (g) (d1) ([2]; mouse, in vivo, 50 mg/kg): 20.82 ± 0.72 g
- Body Weight (g) (d30) ([2]; mouse, in vivo, 50 mg/kg): 20.95 ± 0.45 g
- Inhibition Rate (tumor growth inhibition rate) [3, 10]: 31.10%
- Relative Tumor Proliferation Rate (T/C) [3, 10]: 71.92%
- Relative Tumor Volume (RTV) [3, 10]: 12.59 ± 7.49
- Tumor Volume (d 1) [3, 10]: 139.97 ± 26.58 mm3
- Tumor Volume (d 30) [3, 10]: 1634.85 ± 789.61 mm3
- Tumor Weight [3, 10]: 1.87 ± 0.25 g
- Inhibition Rate (tumor growth inhibition rate) [3, 11]: 51.72%
- Relative Tumor Proliferation Rate (T/C) [3, 11]: 49.05%
- Relative Tumor Volume (RTV) [3, 11]: 8.58 ± 4.41
- Tumor Volume (d 1) [3, 11]: 146.57 ± 32.97 mm3
- Tumor Volume (d 30) [3, 11]: 1162.80 ± 394.71 mm3
- Tumor Weight [3, 11]: 1.31 ± 0.50 g
- Inhibition Rate (tumor growth inhibition rate) [3, 12]: 70.12%
- Relative Tumor Proliferation Rate (T/C) [3, 12]: 30.80%
- Relative Tumor Volume (RTV) [3, 12]: 5.39 ± 0.97
- Tumor Volume (d 1) [3, 12]: 124.02 ± 15.14 mm3
- Tumor Volume (d 30) [3, 12]: 656.95 ± 49.58 mm3
- Tumor Weight [3, 12]: 0.81 ± 0.08 g
- tumor volume and relative tumor volume compared with the model group ([3]; MCF-7, low, medium and high doses, P<0.05): significantly lower
- mouse weight compared with the model group ([3]; mouse, in vivo): no significant changes
